Results as given in ChEMBL document CHEMBL1140093, “Structure-activity relationships for a novel series of dopamine D2-like receptor ligands based on N-substituted 3-aryl-8-azabicyclo[3.2.1]octan-3-ol” (J Med Chem, 2008).
pIC50, pKi: −log10 of the molar value.

What was measured:
[1] = biological target: T1, D(4) dopamine receptor (Homo sapiens, UniProt P21917); assay: Displacement of [125I]IABN from human dopamine D4 receptor
T1 sequence (P21917 whole entry): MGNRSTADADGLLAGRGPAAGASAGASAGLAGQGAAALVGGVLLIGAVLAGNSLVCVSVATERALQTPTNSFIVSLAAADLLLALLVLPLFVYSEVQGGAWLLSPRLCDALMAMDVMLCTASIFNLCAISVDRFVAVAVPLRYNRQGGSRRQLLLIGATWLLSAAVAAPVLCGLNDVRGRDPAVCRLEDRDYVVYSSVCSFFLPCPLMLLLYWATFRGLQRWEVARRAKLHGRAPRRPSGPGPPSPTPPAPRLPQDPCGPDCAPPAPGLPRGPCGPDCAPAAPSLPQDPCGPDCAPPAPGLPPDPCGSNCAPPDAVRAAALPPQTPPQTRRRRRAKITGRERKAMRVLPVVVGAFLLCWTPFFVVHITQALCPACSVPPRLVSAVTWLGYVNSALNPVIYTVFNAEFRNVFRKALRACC

[2] = biological target: 5-hydroxytryptamine receptor 2A (Homo sapiens, UniProt P28223); assay: Displacement of [3H]ketanserin from 5HT2A receptor
5-hydroxytryptamine receptor 2A, sequence (P28223 whole entry): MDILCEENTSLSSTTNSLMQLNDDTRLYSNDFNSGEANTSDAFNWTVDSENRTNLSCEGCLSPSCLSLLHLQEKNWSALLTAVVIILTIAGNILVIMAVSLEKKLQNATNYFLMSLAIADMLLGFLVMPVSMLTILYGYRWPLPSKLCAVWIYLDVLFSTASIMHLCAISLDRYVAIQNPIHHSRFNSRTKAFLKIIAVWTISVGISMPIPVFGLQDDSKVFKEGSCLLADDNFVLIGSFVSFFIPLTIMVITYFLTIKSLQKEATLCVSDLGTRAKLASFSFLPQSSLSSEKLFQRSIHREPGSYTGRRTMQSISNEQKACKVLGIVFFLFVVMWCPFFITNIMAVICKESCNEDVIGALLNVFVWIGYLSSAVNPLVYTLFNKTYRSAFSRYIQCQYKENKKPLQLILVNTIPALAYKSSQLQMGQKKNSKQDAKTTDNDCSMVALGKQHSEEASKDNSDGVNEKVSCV

[3] = biological target: T2, 5-hydroxytryptamine receptor 2C (Homo sapiens, UniProt P28335); assay: Displacement of [3H]mesulergine from 5HT2C receptor
T2 sequence (P28335 whole entry): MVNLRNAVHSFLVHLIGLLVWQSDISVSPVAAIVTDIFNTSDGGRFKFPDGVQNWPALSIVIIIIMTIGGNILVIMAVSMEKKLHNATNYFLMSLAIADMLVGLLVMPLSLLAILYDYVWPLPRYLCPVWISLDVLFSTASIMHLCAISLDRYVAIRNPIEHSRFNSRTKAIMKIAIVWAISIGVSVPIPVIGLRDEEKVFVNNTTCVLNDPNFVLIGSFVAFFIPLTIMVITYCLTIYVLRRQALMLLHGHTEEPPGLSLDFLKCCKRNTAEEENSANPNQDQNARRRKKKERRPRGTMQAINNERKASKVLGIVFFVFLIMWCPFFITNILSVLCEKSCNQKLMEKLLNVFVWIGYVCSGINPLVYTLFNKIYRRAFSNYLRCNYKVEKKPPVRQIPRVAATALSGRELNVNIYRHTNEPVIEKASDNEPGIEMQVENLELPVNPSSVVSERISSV

[4] = biological target: D(1A) dopamine receptor (Homo sapiens, UniProt P21728); assay: Displacement of [3H]SCH23390 from dopamine D1 receptor
D(1A) dopamine receptor, sequence (P21728 whole entry): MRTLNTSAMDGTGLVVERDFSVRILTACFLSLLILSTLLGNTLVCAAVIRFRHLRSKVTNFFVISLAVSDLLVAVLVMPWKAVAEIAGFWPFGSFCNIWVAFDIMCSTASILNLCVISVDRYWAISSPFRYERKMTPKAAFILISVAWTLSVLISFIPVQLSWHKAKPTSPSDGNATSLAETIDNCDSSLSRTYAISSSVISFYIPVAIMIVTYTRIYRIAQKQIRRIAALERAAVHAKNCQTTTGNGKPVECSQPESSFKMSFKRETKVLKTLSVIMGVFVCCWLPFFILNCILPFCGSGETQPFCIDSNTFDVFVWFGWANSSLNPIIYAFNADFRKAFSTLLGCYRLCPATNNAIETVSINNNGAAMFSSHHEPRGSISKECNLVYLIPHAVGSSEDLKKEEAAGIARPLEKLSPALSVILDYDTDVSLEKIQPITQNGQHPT

[5] = biological target: T3, 5-hydroxytryptamine receptor 1A (Homo sapiens, UniProt P08908); assay: Displacement of [3H]8OH-DPAT from 5HT1A receptor
T3 sequence (P08908 whole entry): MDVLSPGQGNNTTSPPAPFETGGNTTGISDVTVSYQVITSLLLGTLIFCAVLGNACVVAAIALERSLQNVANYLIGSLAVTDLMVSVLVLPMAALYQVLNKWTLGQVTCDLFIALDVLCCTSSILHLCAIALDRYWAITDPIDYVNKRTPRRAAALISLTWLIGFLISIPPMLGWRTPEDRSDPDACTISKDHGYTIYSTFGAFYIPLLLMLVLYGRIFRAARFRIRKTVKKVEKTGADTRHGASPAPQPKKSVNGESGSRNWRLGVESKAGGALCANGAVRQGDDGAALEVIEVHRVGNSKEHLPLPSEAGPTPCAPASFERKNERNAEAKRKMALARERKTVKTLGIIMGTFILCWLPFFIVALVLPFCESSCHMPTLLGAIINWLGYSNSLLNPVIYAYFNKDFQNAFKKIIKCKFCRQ

[6] = biological target: T4, D(3) dopamine receptor (Homo sapiens, UniProt P35462); assay: Antagonist activity at dopamine D3 receptor; assay type: functional
T4 sequence (P35462 whole entry): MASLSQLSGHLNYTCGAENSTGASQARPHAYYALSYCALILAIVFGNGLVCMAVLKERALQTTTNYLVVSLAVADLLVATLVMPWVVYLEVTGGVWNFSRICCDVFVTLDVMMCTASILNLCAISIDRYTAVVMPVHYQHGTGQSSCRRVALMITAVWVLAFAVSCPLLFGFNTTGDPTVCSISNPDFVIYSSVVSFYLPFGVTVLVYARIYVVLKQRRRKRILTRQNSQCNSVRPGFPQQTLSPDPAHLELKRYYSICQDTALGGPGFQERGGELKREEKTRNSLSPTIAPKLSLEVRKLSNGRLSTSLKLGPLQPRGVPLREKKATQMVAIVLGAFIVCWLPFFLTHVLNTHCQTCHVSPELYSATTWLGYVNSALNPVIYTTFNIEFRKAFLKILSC

[7] = biological target: T4, D(3) dopamine receptor; assay: Displacement of [125I]IABN from human dopamine D3 receptor expressed in HEK293 cells; assay type: cell-based
[8] = biological target: T5, D(2) dopamine receptor (Homo sapiens, UniProt P14416); assay: Antagonist activity at dopamine D2 receptor; assay type: functional
T5 sequence (P14416 whole entry): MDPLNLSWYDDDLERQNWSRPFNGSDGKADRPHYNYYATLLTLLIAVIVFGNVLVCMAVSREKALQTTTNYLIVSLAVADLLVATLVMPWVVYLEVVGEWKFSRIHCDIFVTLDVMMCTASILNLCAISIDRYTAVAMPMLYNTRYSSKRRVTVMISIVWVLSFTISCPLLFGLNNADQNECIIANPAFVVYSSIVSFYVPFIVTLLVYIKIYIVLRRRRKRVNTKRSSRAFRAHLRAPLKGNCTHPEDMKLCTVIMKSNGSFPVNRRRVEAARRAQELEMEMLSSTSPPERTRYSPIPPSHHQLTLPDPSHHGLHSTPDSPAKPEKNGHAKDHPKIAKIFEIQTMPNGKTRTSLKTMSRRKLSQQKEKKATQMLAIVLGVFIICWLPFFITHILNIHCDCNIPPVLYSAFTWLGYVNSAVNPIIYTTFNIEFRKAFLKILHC

[9] = biological target: T5, D(2) dopamine receptor; assay: Displacement of [125I]IABN from human dopamine D2L receptor expressed in HEK293 cells; assay type: cell-based

Compound	pKi [7]	pKi [9]	other results
O[C@]1(c2ccc(Cl)cc2)C[C@H]2CC[C@@H](C1)N2Cc1c[nH]c2ccccc12	7.81	7.48	pKi [1]: < 5.30; pKi [2]: 5.32; pKi [3]: < 5.00; pKi [4]: 5.91; pKi [5]: < 5.00; pIC50 [6]: 7.91; pIC50 [8]: 7.32
O[C@@]1(c2ccc(Cl)c(Cl)c2)C[C@H]2CC[C@@H](C1)N2Cc1c[nH]c2ccccc12	8.20		pKi [2]: 5.55; pKi [5]: < 5.00; pIC50 [6]: 7.99
O[C@@]1(c2cccc(Cl)c2Cl)C[C@H]2CC[C@@H](C1)N2Cc1c[nH]c2ccccc12	6.32	6.26	
O[C@@]1(c2ccc(F)cc2)C[C@H]2CC[C@@H](C1)N2Cc1c[nH]c2ccccc12	7.51		
O[C@@]1(c2ccc3ccccc3c2)C[C@H]2CC[C@@H](C1)N2Cc1c[nH]c2ccccc12	6.65	6.71	
COc1ccccc1[C@]1(O)C[C@H]2CC[C@@H](C1)N2Cc1c[nH]c2ccccc12	5.19	5.68	
CSc1ccc([C@]2(O)C[C@H]3CC[C@@H](C2)N3Cc2c[nH]c3ccccc23)cc1	6.27	6.25	
O[C@@]1(c2ccc(Cl)cc2)C[C@H]2CC[C@@H](C1)N2Cc1n[nH]c2ccccc12	7.07	6.65	
COc1ccc2[nH]cc(CN3[C@@H]4CC[C@H]3C[C@](O)(c3ccc(Cl)cc3)C4)c2c1	7.67		
COc1ccc2[nH]cc(CN3[C@@H]4CC[C@H]3C[C@](O)(c3ccc(SC)cc3)C4)c2c1	5.92	6.26	
O[C@@]1(c2ccc(Cl)cc2)C[C@H]2CC[C@@H](C1)N2Cc1csc2ccccc12	8.44	7.89	pKi [1]: 6.85; pKi [3]: < 5.00; pKi [4]: 5.52; pKi [5]: 5.76; pIC50 [6]: 8.38; pIC50 [8]: 7.58
O[C@@]1(c2cccc(Cl)c2Cl)C[C@H]2CC[C@@H](C1)N2Cc1csc2ccccc12	6.37	6.55	
O[C@@]1(c2ccc(Cl)cc2)C[C@H]2CC[C@@H](C1)N2Cc1coc2ccccc12	9.15		pKi [3]: < 5.00; pIC50 [6]: 9.07
O[C@]1(c2ccc(Cl)c(Cl)c2)C[C@H]2CC[C@@H](C1)N2Cc1coc2ccccc12	9.47	8.77	
O[C@@]1(c2cccc(Cl)c2Cl)C[C@H]2CC[C@@H](C1)N2Cc1coc2ccccc12	7.49		
O[C@@]1(c2ccc(F)cc2)C[C@H]2CC[C@@H](C1)N2Cc1coc2ccccc12	8.92	8.31	
O[C@@]1(c2ccc(Br)cc2)C[C@H]2CC[C@@H](C1)N2Cc1coc2ccccc12	9.04	8.82	
O[C@@]1(c2ccc(Cl)cc2)C[C@H]2CC[C@@H](C1)N2Cc1coc2ccc(F)cc12	9.43	8.92	
O[C@@]1(c2ccc(Cl)cc2)C[C@H]2CC[C@@H](C1)N2Cc1coc2ccc3ccccc3c12	8.08	7.93	
O[C@@]1(c2ccc(Cl)cc2)C[C@H]2CC[C@@H](C1)N2Cc1coc2c1ccc1ccccc12	8.70	8.25	
O[C@@]1(c2ccc(Cl)c(Cl)c2)C[C@H]2CC[C@@H](C1)N2Cc1coc2ccc(F)cc12	9.28	8.85	
OC1(c2ccc(Cl)cc2)CCN(Cc2c[nH]c3ccccc23)CC1			pKi [1]: 5.96; pIC50 [6]: 7.04
COc1ccc2occ(CN3[C@@H]4CC[C@H]3C[C@](O)(c3ccc(Cl)cc3)C4)c2c1 (single isomer, unassigned)	8.68	8.82	
